Measurements: patent US20260049105A1, “SELECTIVE MC4R LIGAND FOR TREATING OBESITY AND COGNITIVE LOSS” (ARIZONA BOARD OF REGENTS ON BEHALF OF THE UNIVERSITY OF …, priority 2022, published 2026)

Tests used:
hMC4R [1] = biological target: T1, hMC4R (Homo sapiens, UniProt P32245); test: Competitive receptor binding assay, whole HEK293 cells, 125I-NDP-α-MSH; conditions: for inhibition at 10 µM: 40 min, hM4CR, percentage of [125I]NDP-α-MSH displacement at 10 μM, read-out: BE%
T1 construct: expressed in transfected cells; host or cells: HEK293
Method: (§1) Competition binding experiments were performed on whole cells. The transfected HEK293 cell line with hMC4Rs were seeded on 96 well plates, 48 hours before the assay, 100,000 cells/well. For the assay, the medium was removed and cells were washed twice with a freshly prepared binding buffer containing 100% minimum essential medium with Earle's salt (MEM, GIBCO), 25 mM HEPES (pH 7.4), 0.2% bovine serum albumin, 1 mM 1,10-phenanthroline, 0.5 mg/L leupeptin, and 200 mg/L bacitracin. […] The medium was subsequently removed and each well was washed twice with the assay buffer. The cells are lysed by the addition of 250 μL of 0.1 NaOH and 250 μL of 1% Triton X-100. […] Data were analyzed using Graphpad Prism 6.0 (Graphpad Software, San Diego, CA).
IC50 and EC50 values represent the mean of duplicate experiments performed in triplicate. IC50 and EC50 estimates and their associated standard errors were determined by fitting the data using nonlinear least-squares analysis, with the help of Graphpad Prism 6.0 (Graphpad Software, San Diego, CA). […]

hMC4R [2] = biological target: T1, hMC4R; test: Adenylate cyclase (cAMP) assay in transfected HEK293 cells; type: cell-based; conditions: for Emax at 10 µM: HEK293, 0.05 h, hM4CR, percentage of cAMP produced at 10 μM in relation to MT-II, read-out: Act%
Method: The cells were seeded on 96 well plates 48 hours before the assay, (100,000 cells/well). For the assay, the medium was removed and cells were rinsed with 1 mL of MEM buffer (GIBCO) or with Earle's balanced salt solution (EBSS, GIBCO). An aliquot (0.4 mL) of Earle's balanced salt solution was placed in each well along with isobutylmethylxanthine (IBMX; 5 μL; 0.5 mM) for 1 minute at 37° C. Varying concentrations of melanotropins (0.1 mL) were added and the cells incubated for 3 minutes at 37° C. The reaction was stopped by aspirating the buffer and adding ice-cold Tris/EDTA buffer to each well (0.15 mL). The 96 well plates were covered and placed on ice. After dislodging the cells, the plates were placed in a boiling water bath for 15 minutes. The cell lysate was then centrifuged for 10 minutes (4000 rpm), and 50 μL of the supernatant was aliquoted into perkinElmer glass fiber filter plate. cAMP content was measured by competitive binding assay in addition to 50 μL H^3 cAMP and 100 μL PKA. Then the system was placed on ice for 2 hours and then vacuum and filtered. 100 μL of the OptiPhase Supermix scintillation fluid was added to the plate. The plates stayed for 8 hours and then read by MicroBeta radiation plate reader. IC50 and EC50 values represent the mean of duplicate experiments performed in triplicate. […] NA indicates 0% cAMP accumulation observed at 10 μM. The peptides were tested over a range of concentrations from 10^-10 to 10^-5 M.

hMC1R [3] = biological target: T2, hMC1R (Homo sapiens, UniProt Q01726); test: Competitive receptor binding assay, whole HEK293 cells, 125I-NDP-α-MSH; conditions: for inhibition at 10 µM: 40 min, hM1CR, percentage of NDP-α-MSH displacement at 10 μM, read-out: BE %; for hMC1R binding affinity (in words): compared with the other analogues
T2 construct: expressed in transfected cells; host or cells: HEK293
Method: [The procedure below names another target; the source lists this target under the same test.] (§2) Competition binding experiments were performed on whole cells. The transfected HEK293 cell line with hMC4Rs were seeded on 96 well plates, 48 hours before the assay, 100,000 cells/well. For the assay, the medium was removed and cells were washed twice with a freshly prepared binding buffer containing 100% minimum essential medium with Earle's salt (MEM, GIBCO), 25 mM HEPES (pH 7.4), 0.2% bovine serum albumin, 1 mM 1,10-phenanthroline, 0.5 mg/L leupeptin, and 200 mg/L bacitracin. […] The medium was subsequently removed and each well was washed twice with the assay buffer. The cells are lysed by the addition of 250 μL of 0.1 NaOH and 250 μL of 1% Triton X-100. The lysed cell was transferred to the 12×75 mm glass tubes and the radioactivity was measured by Wallac 1470 WIZARD Gamma Counter. Data were analyzed using Graphpad Prism 6.0 (Graphpad Software, San Diego, CA).
(§3) IC50 and EC50 values represent the mean of duplicate experiments performed in triplicate. IC50 and EC50 estimates and their associated standard errors were determined by fitting the data using nonlinear least-squares analysis, with the help of Graphpad Prism 6.0 (Graphpad Software, San Diego, CA).
(§4) NA indicates 0% cAMP accumulation observed at 10 μM. The peptides were tested over a range of concentrations from 10^-10 to 10^-5 M.

hMC3R [4] = biological target: T3, hMC3R (Homo sapiens, UniProt P41968); test: as above; conditions: 40 min; hM3CR; percentage of NDP-α-MSH displacement at 10 μM; read-out: BE %
T3 construct: expressed in transfected cells; host or cells: HEK293
Method: [The procedure below names another target; the source lists this target under the same test.] as §2, §3, §4

hMC5R [5] = biological target: T4, hMC5R (Homo sapiens, UniProt P33032); test: as above; conditions: 40 min; hM5CR; percentage of NDP-α-MSH displacement at 10 μM; read-out: BE %
T4 construct: expressed in transfected cells; host or cells: HEK293
Method: [The procedure below names another target; the source lists this target under the same test.] as §1, §3, §4

hMC1R [6] = biological target: T2, hMC1R; test: Adenylate cyclase (cAMP) assay in transfected HEK293 cells; type: cell-based; conditions: HEK293, 0.05 h; hM1CR; cAMP at 10 μM in relation to MT-II; read-out: Act %
Method: (§5) HEK293 cells transfected with human melanocortin receptors were grown to confluence in MEM medium (GIBCO) containing 10% fetal bovine serum, 100 units/mL penicillin and streptomycin, and 1 mM sodium pyruvate. The cells were seeded on 96 well plates 48 hours before the assay, (100,000 cells/well). For the assay, the medium was removed and cells were rinsed with 1 mL of MEM buffer (GIBCO) or with Earle's balanced salt solution (EBSS, GIBCO). An aliquot (0.4 mL) of Earle's balanced salt solution was placed in each well along with isobutylmethylxanthine (IBMX; 5 μL; 0.5 mM) for 1 minute at 37° C. Varying concentrations of melanotropins (0.1 mL) were added and the cells incubated for 3 minutes at 37° C. The reaction was stopped by aspirating the buffer and adding ice-cold Tris/EDTA buffer to each well (0.15 mL). The 96 well plates were covered and placed on ice. After dislodging the cells, the plates were placed in a boiling water bath for 15 minutes. The cell lysate was then centrifuged for 10 minutes (4000 rpm), and 50 μL of the supernatant was aliquoted into perkinElmer glass fiber filter plate. cAMP content was measured by competitive binding assay in addition to 50 μL H^3 cAMP and 100 μL PKA. Then the system was placed on ice for 2 hours and then vacuum and filtered. 100 μL of the OptiPhase Supermix scintillation fluid was added to the plate. The plates stayed for 8 hours and then read by MicroBeta radiation plate reader.
as §3, §4

hMC3R [7] = biological target: T3, hMC3R; test: as above; type: cell-based; conditions: HEK293, 0.05 h; hM3CR; cAMP at 10 μM in relation to MT-II; read-out: Act %
Method: as §5, §3, §4

hMC5R [8] = biological target: T4, hMC5R; test: as above; type: cell-based; conditions: HEK293, 0.05 h; hM5CR; cAMP at 10 μM in relation to MT-II; read-out: Act %
Method: as §5, §3, §4

hMC4R [9] = biological target: T1, hMC4R; test: Plasmon waveguide resonance (PWR) spectrum of hMC4R membranes with agonists
From the text: PWR uses polarized light generated from a CW He—Ne laser (λ=632.8 nm or λ=543.5 nm), which passes through a glass prism under total internal reflection conditions. A thin metal film (Ag), which is deposited on the external surface of the prism, is overcoated with another thin layer of SiO2 as dielectric media. When there is an object attached to the dielectric layer of SiO2, and polarized laser forms a specific incident angle with the outer surface layer, the resonant excitation of collective electronic oscillations (plasmons) happens and generates an evanescent electromagnetic field localized at the dielectric film, which gives the absorption spectrum at that specific angle. This can be used to probe the optical properties of molecules immobilized on the outer surface of the prism. Resonance is achieved either by varying the laser light wavelength at a fixed angle or by varying the angle at a fixed laser wavelength(we used the latter one in this research). Any changes of the immobilized yield distinct incident angle that evanescence happens in the dielectric layer. Due to the ability that laser light can be polarized to either parallel (p) or perpendicular (s) to the incident plane, characterization of the molecular organization of anisotropic systems can be fulfilled, such as biomembranes containing integral proteins. Under the experimental conditions described herein, the optical parameters obtained with the p-polarization refer to the perpendicular direction, and those obtained with s-polarization refer to the parallel direction, relative to the bilayer membrane surface.
Resonance spectra in this study were obtained using a PWR instrument from Biopeptek Pharmaceuticals LLC. […] Recombinant HEK293 cells expressing the hMC4R were grown to confluency. The confluent cell monolayers were then washed with Ca^2+ and Mg^2+-deficient phosphate-buffered saline and were harvested in the same buffer containing 0.02% ethylenediaminetetraacetic acid (EDTA). After centrifugation at 1500 g for 10 minutes, the cells were homogenized in an ice-cold 10 mM Tris-HCl buffer and 1 mM EDTA (pH 7.4). A crude membrane fraction was collected by centrifugation at 40,000 g for 20 minutes at −4° C. and was stored at −80° C. until use. Before the PWR experiment, the membrane fraction was resuspended in a 20 mM Tris-HCl buffer (pH 7.4) by mild homogenization. Protein concentration was determined by using a Bradford assay.
Under the experimental conditions employed herein, the oscillation of light with p-polarization reflects the dimension of objects perpendicular to the membrane, and those obtained under the s-polarization vector refer to the dimension in parallel with the bilayer membrane surface.

T1 sequence (P32245 whole entry): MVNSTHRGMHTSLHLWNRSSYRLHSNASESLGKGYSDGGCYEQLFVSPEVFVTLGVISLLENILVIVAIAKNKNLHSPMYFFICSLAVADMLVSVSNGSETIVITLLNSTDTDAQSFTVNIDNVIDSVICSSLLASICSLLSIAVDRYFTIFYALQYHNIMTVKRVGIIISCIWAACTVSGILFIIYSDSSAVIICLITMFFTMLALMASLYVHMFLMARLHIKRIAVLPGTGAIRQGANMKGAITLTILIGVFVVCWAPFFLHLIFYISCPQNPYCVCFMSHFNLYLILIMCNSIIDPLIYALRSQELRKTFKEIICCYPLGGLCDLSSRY
T2 sequence (Q01726 whole entry): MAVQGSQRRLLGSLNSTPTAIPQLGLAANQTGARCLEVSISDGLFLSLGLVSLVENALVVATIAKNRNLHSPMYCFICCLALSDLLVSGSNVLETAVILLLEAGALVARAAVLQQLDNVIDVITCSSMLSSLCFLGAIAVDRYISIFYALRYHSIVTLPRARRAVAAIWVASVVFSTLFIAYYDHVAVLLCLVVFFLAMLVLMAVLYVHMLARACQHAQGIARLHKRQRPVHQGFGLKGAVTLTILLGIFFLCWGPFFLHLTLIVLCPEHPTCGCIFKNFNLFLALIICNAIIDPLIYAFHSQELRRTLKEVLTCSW
T4 sequence (P33032 whole entry): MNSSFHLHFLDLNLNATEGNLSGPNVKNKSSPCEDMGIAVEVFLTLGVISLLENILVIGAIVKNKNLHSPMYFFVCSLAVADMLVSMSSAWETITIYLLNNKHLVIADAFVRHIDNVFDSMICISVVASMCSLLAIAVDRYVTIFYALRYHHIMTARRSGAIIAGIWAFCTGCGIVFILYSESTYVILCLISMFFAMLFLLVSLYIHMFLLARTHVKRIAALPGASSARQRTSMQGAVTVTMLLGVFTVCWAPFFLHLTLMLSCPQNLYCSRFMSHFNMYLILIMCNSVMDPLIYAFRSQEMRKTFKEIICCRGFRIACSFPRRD
T3 sequence (P41968 whole entry): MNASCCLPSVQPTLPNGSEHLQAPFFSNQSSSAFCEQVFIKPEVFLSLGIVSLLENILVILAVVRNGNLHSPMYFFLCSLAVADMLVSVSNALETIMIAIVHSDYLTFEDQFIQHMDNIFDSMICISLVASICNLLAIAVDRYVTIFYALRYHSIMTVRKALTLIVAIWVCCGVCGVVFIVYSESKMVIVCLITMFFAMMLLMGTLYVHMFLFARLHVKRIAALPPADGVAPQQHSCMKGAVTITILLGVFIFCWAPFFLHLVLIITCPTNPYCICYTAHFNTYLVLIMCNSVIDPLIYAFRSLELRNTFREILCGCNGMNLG

| SMILES | inhibition at 10 µM (hMC4R [1]) [%] | Emax at 10 µM (hMC4R [2]) [%] | inhibition at 10 µM (hMC1R [3]) [%] | hMC1R binding affinity (in words) (hMC1R [3]) | inhibition at 10 µM (hMC3R [4]) [%] | inhibition at 10 µM (hMC5R [5]) [%] | Emax at 10 µM (hMC1R [6]) [%] | Emax at 10 µM (hMC3R [7]) [%] | Emax at 10 µM (hMC5R [8]) [%] | times higher in binding affinity to hMC4R than hMC1R (hMC4R [1]; hMC4R vs hMC1R) | times higher in binding affinity to hMC4R than hMC3R (hMC4R [1]; hMC4R vs hMC3R) | times higher in binding affinity to hMC4R than hMC5R (hMC4R [1]; hMC4R vs hMC5R) | selectivity for hMC4R (in words) (hMC4R [2]; comparing the EC50 of a compound for each receptor) | PWR peak location under p-polarization (hMC4R [9]; p-polarization, hMC4R sole 26.44) | PWR shift under s-polarization (in words) (hMC4R [9]; s-polarization) |
| --- | --- | --- | --- | --- | --- | --- | --- | --- | --- | --- | --- | --- | --- | --- | --- |
| CC(=O)N[C@@H](CCCNC(=N)N)C(=O)N[C@H]1CC(=O)NCCCC[C@@H](C(N)=O)NC(=O)C[C@H](Cc2c[nH]c3ccccc23)NC(=O)C[C@H](CCCNC(=N)N)NC(=O)[C@@H](Cc2ccc(F)cc2)NC(=O)[C@@H]2CCCCN2C1=O [compound 6, Ac-Arg-cyclo[Asp-Pip-D-Phe(4-F)-βArg-BTrp-Lys]-NH2] | 59 | 120 | 0 | lower binding affinities than the others | 39 | 90 | 61 | 49 | 51 |  |  |  |  |  |  |
| CC(=O)N[C@@H](CCCNC(=N)N)C(=O)N[C@H]1CC(=O)NCCCC[C@@H](C(N)=O)NC(=O)C[C@H](Cc2c[nH]c3ccccc23)NC(=O)[C@H](CCCNC(=N)N)NC(=O)[C@@H](Cc2ccc(Cl)cc2)NC(=O)[C@@H]2CCCCN2C1=O [compound 7, Ac-Arg-cyclo[Asp-Pip-D-Phe(4-Cl)-Arg-BTrp-Lys]-NH2] | 100 | 57 | 100 |  | 70 | 0 | 67 | 24 | 21 |  |  |  |  |  |  |
| CC(=O)N[C@@H](CCCNC(=N)N)C(=O)N[C@H]1CC(=O)NCCCC[C@@H](C(N)=O)NC(=O)[C@H](Cc2c[nH]c3ccccc23)NC(=O)C[C@H](CCCNC(=N)N)NC(=O)[C@@H](Cc2ccc(Cl)cc2)NC(=O)[C@@H]2CCCCN2C1=O [compound 8, Ac-Arg-cyclo[Asp-Pip-D-Phe(4-Cl)-βArg-Trp-Lys]-NH2] | 100 | 66 | 100 |  | 100 | 0 | 89 | 46 | 38 |  |  |  |  |  |  |
| CC(=O)N[C@@H](CCCNC(=N)N)C(=O)N[C@H]1CC(=O)NCCCC[C@@H](C(N)=O)NC(=O)C[C@H](Cc2c[nH]c3ccccc23)NC(=O)C[C@H](CCCNC(=N)N)NC(=O)[C@@H](Cc2ccc(Cl)cc2)NC(=O)[C@@H]2CCCCN2C1=O [compound 9, Ac-Arg-cyclo[Asp-Pip-D-Phe(4-Cl)-βArg-BTrp-Lys]-NH2] | 100 | 87 | 100 | lower binding affinities than the others | 10 | 75 | 90 | 63 | 76 | about 68 times | over 1000 times | over 1000 times | selective agonist of hMC4R | 26.95 | no significant change |
